SMILES strings stand for the structures. The source made the active and inactive calls.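 How the source made its calls: active means compounds whose half-maximal inhibitory concentration IC50 is 20 µM or lower; inactive means the rest.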 Some results are limits rather than exact numbers.

As a reminder, the IC50 is the midpoint of a concentration-inhibition curve.

This experiment has as its system isolated mouse liver mitochondria, Ca2+ swelling, A540 20 min. Briefly: mitochondrial swelling inhibition, absorbance readout – dry powder samples, uHTS hits, dose response (AID 743359).
As for `COc1ccc(Cl)cc1C(=O)Nc1ccc(CN2CCN(C(=O)OC(C)(C)C)CC2)cc1`, the IC50 was 14.9 µM.

As for `O=C(Nc1ccc(CN2CCCCC2)cc1)c1cccc(Cl)c1`, the IC50 was 15 µM.

With `C[C@@H]1CCC[C@H](C)N1CCCC(=O)c1ccc(Br)cc1`, the IC50 was > 50 µM (inactive).

`COc1ccc(Cl)cc1C(=O)Nc1ccc(N2CCOCC2)cc1`: the IC50 is > 50 µM (inactive).

Turning to `COc1ccc(Cl)c(C(=O)Nc2ccc(CCN3CCN(C)CC3)cc2)c1`, the IC50 was > 50 µM (inactive).

As for `O=S(=O)(Nc1ccc(CN2CCCCC2)cc1)c1cc(Cl)cc(Cl)c1`, the IC50 is > 50 µM (inactive).

With `O=S(=O)(Nc1ccc(CN2CCCCC2)cc1)c1cccc(Cl)c1`, the IC50 is > 50 µM (inactive).

Consider `O=S(=O)(Nc1ccc(CCN2CCCCC2)cc1)c1ccc(F)c(Cl)c1`, for which the IC50 is > 50 µM (inactive).

With `COc1ccc(NC(=O)c2cc(Cl)cc(Cl)c2OC)cc1`, the IC50 was > 50 µM (inactive).

With `CN1CCN(c2ccc(Cl)cc2NC(=O)/C=C/c2cccc(F)c2)CC1`, the IC50 was 0.69 µM.

Consider `COc1ccc(Cl)cc1C(=O)Nc1ccc(N2CCN(C)CC2)cc1`, for which the IC50 was 6.13 µM.

Regarding `COc1ccc(Cl)c(C(=O)Nc2ccc(CCN3CCOCC3)cc2)c1`, the IC50 was > 50 µM (inactive).

`CCc1ccccc1NC(=O)c1cc(-c2ccccc2)on1`: the IC50 is > 50 µM (inactive).

With `CC1CCN(CCCC(=O)c2ccc(Br)cc2)CC1`, the IC50 was 40.9 µM (inactive).

For `O=C(Nc1ccc(Cl)cc1)c1cc(-c2cccc(O)c2)on1`, the IC50 is 0.423 µM.

As to `O=C(Nc1ccc(OCc2ccccc2)c(Cl)c1)c1cc(-c2cccc(O)c2)on1`, the IC50 is > 50 µM (inactive).

For the molecule `COc1ccc(Cl)cc1S(=O)(=O)Nc1ccc(CCN2CCCCC2)cc1`, the IC50 was > 50 µM (inactive).

For the molecule `O=C(Nc1ccccc1OCc1ccccc1)c1cc(-c2cccc(O)c2)on1`, the IC50 is > 50 µM (inactive).

For `Cc1ccc(NC(=O)c2cc(-c3cccc(O)c3)on2)cc1Cl`, the IC50 was 0.83 µM.

Consider `O=C(Nc1cccc(Cl)c1)c1cc(-c2cccc(O)c2)on1`, for which the IC50 was under 0.391 µM.

With `CCN(CC)c1ccc(NC(=O)c2ccc(OC)c(Cl)c2)cc1`, the IC50 was > 50 µM (inactive).

Take `COc1ccc(Cl)cc1S(=O)(=O)Nc1ccc(CN2CCCCC2)cc1`: the IC50 is > 50 µM (inactive).

With `O=C(Nc1cccc(Cl)c1)c1cc(-c2ccccc2)on1`, the IC50 is 47.2 µM (inactive).

`COc1ccc(Cl)c(C(=O)Nc2cccc(CN3CCN(C(=O)OC(C)(C)C)CC3)c2)c1`: the IC50 was > 50 µM (inactive).

As for `COc1ccc(Cl)c(C(=O)Nc2ccc(CN3CCN(C(=O)OC(C)(C)C)CC3)cc2)c1`, the IC50 was 18.2 µM (inactive).

As for `COc1ccc(Cl)c(C(=O)Nc2ccc(CN3CCOCC3)cc2)c1`, the IC50 was > 50 µM (inactive).

For `CN1CCN(c2ccc(NS(=O)(=O)c3ccc(F)c(Cl)c3)cc2)CC1`, the IC50 was > 50 µM (inactive).

As for `COc1c(Cl)cccc1NC(=O)c1cc(-c2cccc(O)c2)on1`, the IC50 was 27.6 µM (inactive).

Turning to `COc1ccc(Cl)c(C(=O)Nc2ccc(CN3CCN(C)CC3)cc2)c1`, the IC50 is > 50 µM (inactive).

Turning to `O=C(Nc1ccc(CCN2CCCCC2)cc1)c1cccc(OCc2ccccc2)c1`, the IC50 was 2.3 µM.

With `COc1ccc(Cl)cc1C(=O)Nc1ccc(CN2CCCCC2)cc1`, the concentration for half-maximal inhibition (IC50) was 1.72 µM.

Turning to `COc1ccc(Cl)cc1C(=O)Nc1ccc(CCN2CCN(C)CC2)cc1`, the IC50 was 10.7 µM.

With `O=C(Nc1cc(Cl)cc(Cl)c1)c1cc(-c2cccc(O)c2)on1`, the IC50 is under 0.391 µM.

On to `O=C(Nc1cc(Cl)ccc1Cl)c1cc(-c2cccc(O)c2)on1`, for which the IC50 is 1.6 µM.

Consider `O=C(Nc1ccc(CN2CCCCC2)cc1)c1cccc(OCc2ccccc2)c1`, for which the IC50 was 0.95 µM.

`Cc1ccc(-c2cc(C(=O)Nc3cccc(Cl)c3)no2)cc1`: the IC50 is > 50 µM (inactive).

For the molecule `COc1ccc(C(=O)CCN2CCCC(C)C2)cc1` (stereo unspecified), the IC50 was 38 µM (inactive).

With `COc1ccc(Cl)cc1C(=O)Nc1ccc(CN2CCNCC2)cc1`, the IC50 is 2.24 µM.

Consider `O=S(=O)(Nc1ccc(CCN2CCCCC2)cc1)c1cc(Cl)cc(Cl)c1`, for which the IC50 was 25.1 µM (inactive).

Take `O=C(Nc1ccc(Br)cc1)c1cc(C2CC2)on1`: the concentration for half-maximal inhibition (IC50) was 6.34 µM.

Consider `O=C(Nc1ccc(CN2CCCCC2)cc1)c1cc(Cl)cc(OCc2ccccc2)c1`, for which the half-inhibitory concentration (IC50) was under 0.391 µM.

In the case of `CN1CCN(CCc2ccc(NS(=O)(=O)c3cccc(Cl)c3)cc2)CC1`, the IC50 is > 50 µM (inactive).

As to `CN1CCN(Cc2ccc(NS(=O)(=O)c3cccc(Cl)c3)cc2)CC1`, the IC50 is > 50 µM (inactive).

Turning to `CN1CCN(CCc2ccc(NS(=O)(=O)c3ccc(F)c(Cl)c3)cc2)CC1`, the IC50 was > 50 µM (inactive).

As to `O=C(Nc1cccc(Cl)c1)c1cc(-c2ccc(Cl)cc2)on1`, the IC50 is > 50 µM (inactive).

Take `CN1CCN(c2ccc(NS(=O)(=O)c3cc(Cl)cc(Cl)c3)cc2)CC1`: the IC50 was 44.9 µM (inactive).

On to `Cc1c(Cl)cccc1NC(=O)c1cc(-c2cccc(O)c2)on1`, for which the IC50 is under 0.391 µM.

With `O=C(Nc1cccc(F)c1)c1cc(-c2cccc(O)c2)on1`, the IC50 is 4.61 µM.

Regarding `COc1ccccc1C(=O)Nc1ccc(CN2CCCCC2)cc1`, the IC50 was 46.5 µM (inactive).

`CN1CCN(Cc2ccc(NS(=O)(=O)c3ccc(F)c(Cl)c3)cc2)CC1`: the IC50 was > 50 µM (inactive).

As for `CC(C)c1cc(C(=O)Nc2ccc(F)cc2F)no1`, the IC50 was 24 µM (inactive).

In the case of `O=C(Nc1ccccc1C(F)(F)F)c1cc(-c2ccccc2)on1`, the IC50 was > 50 µM (inactive).

Take `COc1ccc(Cl)cc1S(=O)(=O)Nc1ccc(N2CCN(C)CC2)cc1`: the IC50 was > 50 µM (inactive).

Consider `COc1ccccc1C(=O)Nc1ccc(C(=O)N2CCCCC2)cc1`, for which the IC50 is > 50 µM (inactive).

As for `COc1ccc(Cl)cc1C(=O)Nc1ccc(CN2CCOCC2)cc1`, the IC50 was 15.1 µM.

Regarding `CC1(C)CCN(CCCC(=O)c2ccc(Br)cc2)CC1`, the IC50 is 13.9 µM.

Consider `COc1ccc(NC(=O)c2cc(-c3ccc(Cl)cc3)on2)cc1Cl`, for which the IC50 was > 50 µM (inactive).

Turning to `Cc1ccc(Cl)cc1NC(=O)c1cc(-c2cccc(O)c2)on1`, the IC50 was under 0.391 µM.

In the case of `COc1ccc(Cl)cc1C(=O)Nc1ccc(CCN2CCCCC2)cc1`, the IC50 is 6 µM.

For the molecule `COc1ccc(Cl)cc1C(=O)Nc1cccc(CN2CCN(C(=O)OC(C)(C)C)CC2)c1`, the IC50 was > 50 µM (inactive).

As to `COc1ccc(NC(=O)c2cc(-c3cccc(O)c3)on2)cc1Cl`, the IC50 was under 0.391 µM.

Take `CN1CCN(CCc2ccc(NS(=O)(=O)c3cc(Cl)cc(Cl)c3)cc2)CC1`: the IC50 is 47.8 µM (inactive).

As to `Cc1cc(NC(=O)c2cc(-c3ccc(F)cc3)on2)no1`, the IC50 was > 50 µM (inactive).

As for `CN1CCN(CCc2ccc(NC(=O)c3cccc(OCc4ccccc4)c3)cc2)CC1`, the IC50 is 3.84 µM.

Consider `COc1ccc(Cl)c(C(=O)Nc2ccc(CCN3CCN(C(=O)OC(C)(C)C)CC3)cc2)c1`, for which the IC50 was > 50 µM (inactive).

Turning to `COc1ccc(Cl)c(C(=O)Nc2ccc(CCN3CCCCC3)cc2)c1`, the IC50 is > 50 µM (inactive).
